In patent US11780839B2, “Compounds for treating Huntington's disease” (PTC THERAPEUTICS, INC., priority 2018, dated 2023):
Each block holds one molecule with its values, some of them ahead of it.

System: Endogenous Huntingtin Protein
Test: Endogenous Huntingtin Protein Assay (ELISA-based Meso Scale Discovery electrochemiluminescence)
Type: cell-based
Conditions: MSD electrochemiluminescence, Table 1
Summary of the method: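 Huntingtin was captured overnight at 4 °C on plates coated with 1 μg/mL MW1 (polyQ-expanded) or MAB2166 antibody and BSA-blocked. Detection used a rabbit monoclonal and then a SULFO-TAG goat anti-rabbit antibody (0.25 μg/mL, 1 h each, room temperature). Signal was read by electrochemiluminescence.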

Structure (SMILES): CC1(C)CN(c2ncc(-c3ccc(-c4cn[nH]c4)cc3O)nn2)CC(C)(C)N1 [Cpd 282, 5-(1H-pyrazol-4-yl)-2-[3-(3,3,5,5-tetramethylpiperazin-1-yl)-1,2,4-triazin-6-yl]phenol]
IC50: > 0.5 µM

Structure (SMILES): CC(C)NC1CCN(c2ncc(-c3ccc(-c4cn5ccnc5cn4)cc3O)nn2)C1 (centres unmarked) [Cpd 283, 5-(imidazo[1,2-a]pyrazin-6-yl)-2-(3-{3-[(propan-2-yl)amino]pyrrolidin-1-yl}-1,2,4-triazin-6-yl)phenol]
IC50: 1 to 3 µM

Structure (SMILES): Cn1ncc2cc(-c3ccc(-c4cnc(N[C@H]5CC(C)(C)NC(C)(C)[C@H]5F)nn4)c(O)c3)cnc21 [Cpd 284]
IC50: ≤ 0.1 µM

Structure (SMILES): CN(c1ncc(-c2ccc(-c3ccc4c(c3)ncn4C)cc2O)nn1)C1CC(C)(C)NC(C)(C)C1 [Cpd 285, 5-(1-methyl-1H-benzimidazol-5-yl)-2-{3-[methyl(2,2,6,6-tetramethylpiperidin-4-yl)amino]-1,2,4-triazin-6-yl}phenol]
IC50: ≤ 0.1 µM

Structure (SMILES): CO[C@H]1[C@@H](Nc2ncc(-c3ccc(-c4cn[nH]c4)cc3O)nn2)CC(C)(C)NC1(C)C [Cpd 286, 2-(3-{[(3S,4S)-3-methoxy-2,2,6,6-tetramethylpiperidin-4-yl]amino}-1,2,4-triazin-6-yl)-5-(1H-pyrazol-4-yl)phenol]
IC50: 0.1 to 0.5 µM

Structure (SMILES): Cn1ncc(-c2ccc(-c3cnc(N[C@H]4CC(C)(C)NC(C)(C)[C@H]4F)nn3)c(O)c2)n1 [Cpd 287, 2-(3-{[(3S,4S)-3-fluoro-2,2,6,6-tetramethylpiperidin-4-yl]amino}-1,2,4-triazin-6-yl)-5-(2-methyl-2H-1,2,3-triazol-4-yl)phenol]
IC50: ≤ 0.1 µM

Structure (SMILES): CC1(C)C[C@H](Nc2ncc(-c3ccc(-c4ncco4)cc3O)nn2)[C@H](F)C(C)(C)N1 [Cpd 288, 2-(3-{[(3S,4S)-3-fluoro-2,2,6,6-tetramethylpiperidin-4-yl]amino}-1,2,4-triazin-6-yl)-5-(1,3-oxazol-2-yl)phenol]
IC50: ≤ 0.1 µM

Structure (SMILES): Cc1ncc(-c2ccc(-c3cnc(N4CCC(NC(C)C)C4)nn3)c(O)c2)o1 (stereo not drawn) [Cpd 289, 5-(2-methyl-1,3-oxazol-5-yl)-2-(3-{3-[(propan-2-yl)amino]pyrrolidin-l-yl}-1,2,4-triazin-6-yl)phenol]
IC50: ≤ 0.1 µM

Structure (SMILES): CO[C@H]1[C@@H](N(C)c2ncc(-c3ccc(-c4cn[nH]c4)cc3O)nn2)CC(C)(C)NC1(C)C [Cpd 293, 2-(3-{[(3S,4S)-3-methoxy-2,2,6,6-tetramethylpiperidin-4-yl](methyl)amino}-1,2,4-triazin-6-yl)-5-(1H-pyrazol-4-yl)phenol]
IC50: 0.1 to 0.5 µM

Structure (SMILES): CN(c1ncc(-c2ccc(-c3cc(F)c4c(c3)ncn4C)cc2O)nn1)C1CC(C)(C)NC(C)(C)C1 [Cpd 300, 5-(7-fluoro-1-methyl-1H-benzimidazol-5-yl)-2-{3-[methyl(2,2,6,6-tetramethylpiperidin-4-yl)amino]-1,2,4-triazin-6-yl}phenol]
IC50: 1 to 3 µM

Structure (SMILES): CN(c1ncc(-c2ccc(-c3cc4nc[nH]c4c(F)c3F)cc2O)nn1)C1CC(C)(C)NC(C)(C)C1 [Cpd 301, 5-(6,7-difluoro-1H-benzimidazol-5-yl)-2-{3-[methyl(2,2,6,6-tetramethylpiperidin-4-yl)amino]-1,2,4-triazin-6-yl}phenol]
IC50: ≤ 0.1 µM

Structure (SMILES): CN(c1ncc(-c2ccc(-c3cc4ncn(C)c4c(F)c3F)cc2O)nn1)C1CC(C)(C)NC(C)(C)C1 [Cpd 302, 5-(6,7-difluoro-1-methyl-1H-benzimidazol-5-yl)-2-{3-[methyl(2,2,6,6-tetramethylpiperidin-4-yl)amino]-1,2,4-triazin-6-yl}phenol]
IC50: > 0.5 µM

Structure (SMILES): Cc1cc(-c2ccc(-c3cnc(N(C)C4CC(C)(C)NC(C)(C)C4)nn3)c(O)c2)nn2ccnc12 [Cpd 303, 5-(8-methylimidazo[1,2-b]pyridazin-6-yl)-2-{3-[methyl(2,2,6,6-tetramethylpiperidin-4-yl)amino]-1,2,4-triazin-6-yl}phenol]
IC50: ≤ 0.1 µM

Structure (SMILES): COc1cc(-c2ccc(-c3cnc(N(C)C4CC(C)(C)NC(C)(C)C4)nn3)c(O)c2)nn2ccnc12 [Cpd 304, 5-(8-methoxyimidazo[1,2-b]pyridazin-6-yl)-2-{3-[methyl(2,2,6,6-tetramethylpiperidin-4-yl)amino]-1,2,4-triazin-6-yl}phenol]
IC50: ≤ 0.1 µM

The next lines start with the values.

IC50: ≤ 0.1 µM
Structure (SMILES): COc1cc(-c2ccc(-c3cnc(N[C@H]4CC(C)(C)NC(C)(C)[C@H]4F)nn3)c(O)c2)ncn1 [Cpd 290, 2-(3-{[(3S,4S)-3-fluoro-2,2,6,6-tetramethylpiperidin-4-yl]amino}-1,2,4-triazin-6-yl)-5-(6-methoxypyrimidin-4-yl)phenol]

IC50: ≤ 0.1 µM
Structure (SMILES): Cn1nnc(-c2ccc(-c3cnc(N[C@H]4CC(C)(C)NC(C)(C)[C@H]4F)nn3)c(O)c2)n1 [Cpd 291, 2-(3-{[(3S,4S)-3-fluoro-2,2,6,6-tetramethylpiperidin-4-yl]amino}-1,2,4-triazin-6-yl)-5-(2-methyl-2H-tetrazol-5-yl)phenol]

IC50: ≤ 0.1 µM
Structure (SMILES): CC1(C)C[C@H](Nc2ncc(-c3ccc(-c4ncns4)cc3O)nn2)[C@H](F)C(C)(C)N1 [Cpd 292, 2-(3-{[(3S,4S)-3-fluoro-2,2,6,6-tetramethylpiperidin-4-yl]amino}-1,2,4-triazin-6-yl)-5-(1,2,4-thiadiazol-5-yl)phenol]

IC50: ≤ 0.1 µM
Structure (SMILES): CC(C)NC1CCN(c2ncc(-c3ccc(-c4ccc5nccn5n4)cc3O)nn2)C1 (centres unmarked) [Cpd 294]

IC50: ≤ 0.1 µM
Structure (SMILES): CNC1CCN(c2ncc(-c3ccc(-c4cnn(C)n4)cc3O)nn2)C1 (centres unmarked) [Cpd 295, 2-{3-[3-(methylamino)pyrrolidin-1-yl]-1,2,4-triazin-6-yl}-5-(2-methyl-2H-1,2,3-triazol-4-yl)phenol]

IC50: 1 to 3 µM
Structure (SMILES): CNC1CCN(c2ncc(-c3ccc(-c4ccn(C)n4)cc3O)nn2)C1 (centres unmarked) [Cpd 296, 2-{3-[3-(methylamino)pyrrolidin-1-yl]-1,2,4-triazin-6-yl}-5-(1-methyl-1H-pyrazol-3-yl)phenol]

IC50: ≤ 0.1 µM
Structure (SMILES): CC(C)CNC1CCN(c2ncc(-c3ccc(-c4cn[nH]c4)cc3O)nn2)C1 (centres unmarked) [Cpd 297]

IC50: 1 to 3 µM
Structure (SMILES): CC1(C)C[C@H](Nc2ncc(-c3ccc(-c4cn[nH]c4)cc3O)nn2)[C@H](O)C(C)(C)N1 [Cpd 298, (3S,4S)-4-({6-[2-hydroxy-4-(1H-pyrazol-4-yl)phenyl]-1,2,4-triazin-3-yl}amino)-2,2,6,6-tetramethylpiperidin-3-ol]

IC50: ≤ 0.1 µM
Structure (SMILES): Cc1ncc(-c2ccc(-c3cnc(N4CC5(CCN(C)CC5)C4)nn3)c(O)c2)o1 [Cpd 299, 2-[3-(7-methyl-2,7-diazaspiro[3.5]nonan-2-yl)-1,2,4-triazin-6-yl]-5-(2-methyl-1,3-oxazol-5-yl)phenol]

IC50: ≤ 0.1 µM
Structure (SMILES): CC1(C)CC(Nc2ncc(-c3ccc(-c4cncnn4)cc3O)nn2)CC(C)(C)N1 [Cpd 305, 2-{3-[(2,2,6,6-tetramethylpiperidin-4-yl)amino]-1,2,4-triazin-6-yl}-5-(1,2,4-triazin-6-yl)phenol]

IC50: 0.1 to 0.5 µM
Structure (SMILES): Oc1cc(-c2cn[nH]c2)ccc1-c1cnc(N2C[C@@H]3CCCN[C@@H]3C2)nn1 [Cpd 306, 2-{3-[(4aS,7aS)-octahydro-6H-pyrrolo[3,4-b]pyridin-6-yl]-1,2,4-triazin-6-yl}-5-(1H-pyrazol-4-yl)phenol]

IC50: > 0.5 µM
Structure (SMILES): CC(C)NC1CCN(c2ncc(-c3ccc(-c4cnc5c(cnn5C)c4)cc3O)nn2)C1 (centres unmarked) [Cpd 307, 5-(1-methyl-1H-pyrazolo[3,4-b]pyridin-5-yl)-2-(3-{3-[(propan-2-yl)amino]pyrrolidin-1-yl}-1,2,4-triazin-6-yl)phenol]
